One assay has as its target 5-HT transporter (h) (Homo sapiens, UniProt P31645). Description: 5-HT transporter (h) (antagonist radioligand). The following applies: read-out: Inhibition 5-HT transporter (h) (antagonist radioligand).
In a further assay the target is FP (h) (Homo sapiens, UniProt P43088). Put plainly: FP (h) (agonist radioligand). The settings on record: read-out: Inhibition FP (h) (agonist radioligand).
The subject of a further assay is PCP. Description: PCP (antagonist radioligand). The settings on record: 10 µM.
In assay [1] the target is T1, MAO-A (h) monoamine oxydase A (Homo sapiens, UniProt P21397).
T1 sequence (P21397 1-527): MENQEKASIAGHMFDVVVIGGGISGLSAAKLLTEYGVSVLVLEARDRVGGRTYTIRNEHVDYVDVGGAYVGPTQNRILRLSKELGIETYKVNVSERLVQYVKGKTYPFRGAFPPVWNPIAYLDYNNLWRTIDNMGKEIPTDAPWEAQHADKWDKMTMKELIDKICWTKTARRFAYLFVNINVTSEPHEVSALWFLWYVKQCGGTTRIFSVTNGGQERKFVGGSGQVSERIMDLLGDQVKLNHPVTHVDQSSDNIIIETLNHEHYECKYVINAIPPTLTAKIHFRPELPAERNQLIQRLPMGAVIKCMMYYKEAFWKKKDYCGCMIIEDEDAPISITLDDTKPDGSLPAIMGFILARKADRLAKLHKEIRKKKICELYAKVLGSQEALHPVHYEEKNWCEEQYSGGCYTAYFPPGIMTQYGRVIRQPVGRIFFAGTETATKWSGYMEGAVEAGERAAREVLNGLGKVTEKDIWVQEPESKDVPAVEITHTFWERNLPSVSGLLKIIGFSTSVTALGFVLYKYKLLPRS
Description: MAO-A (h) monoamine oxydase A, enzymatic assay. The following applies: read-out: Inhibition MAO-A (h) monoamine oxydase A, enzymatic assay.

A further assay addresses D2S (h) (Homo sapiens, UniProt P14416). Put plainly: D2S (h) (agonist radioligand). The following applies: read-out: Inhibition D2S (h) (agonist radioligand).
Another assay has as its target H2 (h) (Homo sapiens, UniProt P25021). Description: H2 (h) (antagonist radioligand). The settings on record: read-out: Inhibition H2 (h) (antagonist radioligand).
For a further assay, the target named is T2, alpha2A (h) (Homo sapiens, UniProt P08913).
T2 sequence (P08913 1-465): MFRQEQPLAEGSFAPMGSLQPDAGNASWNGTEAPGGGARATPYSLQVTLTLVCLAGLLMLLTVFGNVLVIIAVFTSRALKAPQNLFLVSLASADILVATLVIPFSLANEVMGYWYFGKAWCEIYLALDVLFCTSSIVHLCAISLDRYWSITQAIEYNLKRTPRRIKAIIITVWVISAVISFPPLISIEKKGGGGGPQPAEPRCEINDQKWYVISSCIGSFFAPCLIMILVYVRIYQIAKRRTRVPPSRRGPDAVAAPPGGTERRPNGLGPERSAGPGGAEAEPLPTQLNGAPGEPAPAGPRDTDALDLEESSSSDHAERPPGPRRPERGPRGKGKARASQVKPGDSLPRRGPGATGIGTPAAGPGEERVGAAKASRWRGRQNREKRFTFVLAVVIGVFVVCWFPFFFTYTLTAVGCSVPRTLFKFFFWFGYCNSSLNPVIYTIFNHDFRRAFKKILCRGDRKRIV
Put plainly: alpha2A (h) (antagonist radioligand). The settings on record: read-out: Inhibition alpha2A (h) (antagonist radioligand).

For another assay, the target named is T3, CCK1 (CCKA) (h) (Homo sapiens, UniProt P32238).
T3 sequence (P32238 1-428): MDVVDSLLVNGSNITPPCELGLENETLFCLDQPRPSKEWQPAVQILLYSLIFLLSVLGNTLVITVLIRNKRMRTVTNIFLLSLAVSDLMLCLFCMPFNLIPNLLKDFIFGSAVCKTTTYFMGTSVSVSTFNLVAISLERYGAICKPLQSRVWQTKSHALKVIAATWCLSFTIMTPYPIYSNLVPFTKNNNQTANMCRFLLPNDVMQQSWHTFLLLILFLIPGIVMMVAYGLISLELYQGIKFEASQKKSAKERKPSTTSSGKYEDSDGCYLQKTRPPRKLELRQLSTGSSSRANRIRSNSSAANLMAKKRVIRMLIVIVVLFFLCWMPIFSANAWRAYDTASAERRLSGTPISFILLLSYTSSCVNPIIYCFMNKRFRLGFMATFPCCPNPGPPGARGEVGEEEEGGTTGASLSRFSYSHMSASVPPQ
Put plainly: CCK1 (CCKA) (h) (agonist radioligand). The settings on record: read-out: Inhibition CCK1 (CCKA) (h) (agonist radioligand).

In the next assay the target is 5-HT2B (h) (Homo sapiens, UniProt P41595). Put plainly: 5-HT2B (h) (agonist radioligand). The settings on record: read-out: Inhibition 5-HT2B (h) (agonist radioligand).
Another assay concerns the target GSK3alpha (h) (Homo sapiens, UniProt P49840). Description: GSK3alpha (h). The following applies: read-out: Inhibition GSK3alpha (h).
The target in a further assay is CB1 (h) (Homo sapiens, UniProt P21554). Put plainly: CB1 (h) (agonist radioligand). The settings on record: read-out: Inhibition CB1 (h) (agonist radioligand).
For assay [2], the target named is xanthine oxidase/ superoxide O2- scavenging (Bos taurus, UniProt P80457). Description: xanthine oxidase/ superoxide O2- scavenging. The settings on record: read-out: Inhibition xanthine oxidase/ superoxide O2- scavenging.
The target of the next assay is Abl kinase (h) (Homo sapiens, UniProt P00519). Put plainly: Abl kinase (h). The following applies: read-out: Inhibition Abl kinase (h).
The target in a further assay is MMP-9 (h) (Homo sapiens, UniProt P14780). Description: MMP-9 (h). The following applies: read-out: Inhibition MMP-9 (h).

The text below walks through data of article PMC11951083, “Highly Specific Miniaturized Fluorescent Monoacylglycerol Lipase Probes Enable Translational Research” (Journal of the American Chemical Society, 2025).

Chain of FP (h) (P43088 whole entry): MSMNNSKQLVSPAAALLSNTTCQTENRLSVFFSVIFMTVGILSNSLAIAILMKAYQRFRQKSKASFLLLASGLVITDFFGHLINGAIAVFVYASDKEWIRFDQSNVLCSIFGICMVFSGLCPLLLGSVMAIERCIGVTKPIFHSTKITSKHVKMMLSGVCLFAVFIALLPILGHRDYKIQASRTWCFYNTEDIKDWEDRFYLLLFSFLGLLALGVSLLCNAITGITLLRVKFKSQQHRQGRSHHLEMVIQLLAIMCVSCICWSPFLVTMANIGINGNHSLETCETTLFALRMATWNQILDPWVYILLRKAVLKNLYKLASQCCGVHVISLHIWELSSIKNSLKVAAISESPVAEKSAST
Chain of CB1 (h) (P21554 whole entry): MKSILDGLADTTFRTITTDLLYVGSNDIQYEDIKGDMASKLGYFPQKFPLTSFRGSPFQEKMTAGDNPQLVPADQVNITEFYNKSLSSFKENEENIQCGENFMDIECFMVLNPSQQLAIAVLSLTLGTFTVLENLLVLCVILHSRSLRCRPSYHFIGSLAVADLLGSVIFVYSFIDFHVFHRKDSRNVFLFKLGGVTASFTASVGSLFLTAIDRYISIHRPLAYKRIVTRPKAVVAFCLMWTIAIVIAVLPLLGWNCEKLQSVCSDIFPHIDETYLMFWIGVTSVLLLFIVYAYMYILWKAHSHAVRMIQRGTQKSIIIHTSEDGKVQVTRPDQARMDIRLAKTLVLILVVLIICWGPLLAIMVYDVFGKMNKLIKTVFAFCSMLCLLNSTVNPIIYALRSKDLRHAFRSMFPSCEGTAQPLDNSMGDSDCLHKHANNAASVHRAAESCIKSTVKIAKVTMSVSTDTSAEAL
Chain of D2S (h) (P14416 1-414 isoform P14416-2): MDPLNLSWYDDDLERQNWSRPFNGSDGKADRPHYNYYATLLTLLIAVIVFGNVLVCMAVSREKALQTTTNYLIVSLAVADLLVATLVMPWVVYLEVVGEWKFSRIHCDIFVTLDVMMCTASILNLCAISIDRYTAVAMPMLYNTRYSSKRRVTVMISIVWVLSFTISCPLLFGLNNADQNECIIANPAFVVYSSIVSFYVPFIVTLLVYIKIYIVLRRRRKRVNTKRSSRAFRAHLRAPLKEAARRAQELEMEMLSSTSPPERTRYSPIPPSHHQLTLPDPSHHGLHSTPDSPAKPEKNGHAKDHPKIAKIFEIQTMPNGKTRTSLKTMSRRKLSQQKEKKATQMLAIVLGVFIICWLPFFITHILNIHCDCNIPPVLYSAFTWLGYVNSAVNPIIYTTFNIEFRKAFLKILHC
Chain of H2 (h) (P25021 whole entry): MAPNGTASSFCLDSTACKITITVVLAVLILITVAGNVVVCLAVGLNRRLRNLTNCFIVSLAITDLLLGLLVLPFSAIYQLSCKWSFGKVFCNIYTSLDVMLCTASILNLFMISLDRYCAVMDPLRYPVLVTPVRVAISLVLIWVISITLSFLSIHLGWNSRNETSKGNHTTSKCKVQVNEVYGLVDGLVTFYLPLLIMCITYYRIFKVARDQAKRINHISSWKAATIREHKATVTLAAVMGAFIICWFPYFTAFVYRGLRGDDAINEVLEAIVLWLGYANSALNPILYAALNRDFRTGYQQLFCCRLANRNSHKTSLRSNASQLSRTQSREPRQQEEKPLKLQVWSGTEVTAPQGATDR
Chain of 5-HT transporter (h) (P31645 whole entry): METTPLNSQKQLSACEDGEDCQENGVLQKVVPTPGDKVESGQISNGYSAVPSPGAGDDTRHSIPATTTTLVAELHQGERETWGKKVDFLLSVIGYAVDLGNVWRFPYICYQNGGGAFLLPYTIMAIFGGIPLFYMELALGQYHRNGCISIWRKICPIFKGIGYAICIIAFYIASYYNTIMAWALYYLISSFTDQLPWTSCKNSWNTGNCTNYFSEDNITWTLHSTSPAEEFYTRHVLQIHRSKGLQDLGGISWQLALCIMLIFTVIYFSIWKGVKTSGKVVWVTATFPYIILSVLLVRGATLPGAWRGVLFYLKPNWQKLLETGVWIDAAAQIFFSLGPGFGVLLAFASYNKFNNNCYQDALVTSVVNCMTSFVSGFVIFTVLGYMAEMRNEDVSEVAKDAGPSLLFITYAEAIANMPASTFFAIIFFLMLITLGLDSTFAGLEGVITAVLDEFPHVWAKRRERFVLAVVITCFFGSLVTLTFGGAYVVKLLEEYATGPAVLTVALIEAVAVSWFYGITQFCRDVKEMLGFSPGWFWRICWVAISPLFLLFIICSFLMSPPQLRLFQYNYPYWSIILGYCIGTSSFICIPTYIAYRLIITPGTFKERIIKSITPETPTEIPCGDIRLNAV
Chain of MMP-9 (h) (P14780 94-707): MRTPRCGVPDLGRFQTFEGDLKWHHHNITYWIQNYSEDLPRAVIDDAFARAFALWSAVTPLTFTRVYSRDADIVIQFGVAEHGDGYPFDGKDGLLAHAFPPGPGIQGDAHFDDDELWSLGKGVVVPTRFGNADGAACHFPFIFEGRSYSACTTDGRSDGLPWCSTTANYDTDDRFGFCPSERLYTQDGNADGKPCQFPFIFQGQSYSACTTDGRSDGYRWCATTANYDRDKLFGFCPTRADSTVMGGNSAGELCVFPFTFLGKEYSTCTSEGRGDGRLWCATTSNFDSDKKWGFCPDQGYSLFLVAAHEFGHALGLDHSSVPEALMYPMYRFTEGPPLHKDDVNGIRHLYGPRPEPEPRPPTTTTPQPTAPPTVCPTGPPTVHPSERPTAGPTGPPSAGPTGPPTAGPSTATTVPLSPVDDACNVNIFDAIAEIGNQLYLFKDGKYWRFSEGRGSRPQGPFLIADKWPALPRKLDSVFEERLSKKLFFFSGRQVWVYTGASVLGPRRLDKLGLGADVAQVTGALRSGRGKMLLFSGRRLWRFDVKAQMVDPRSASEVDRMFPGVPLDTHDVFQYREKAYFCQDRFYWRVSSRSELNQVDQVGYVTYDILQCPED
Chain of 5-HT2B (h) (P41595 whole entry): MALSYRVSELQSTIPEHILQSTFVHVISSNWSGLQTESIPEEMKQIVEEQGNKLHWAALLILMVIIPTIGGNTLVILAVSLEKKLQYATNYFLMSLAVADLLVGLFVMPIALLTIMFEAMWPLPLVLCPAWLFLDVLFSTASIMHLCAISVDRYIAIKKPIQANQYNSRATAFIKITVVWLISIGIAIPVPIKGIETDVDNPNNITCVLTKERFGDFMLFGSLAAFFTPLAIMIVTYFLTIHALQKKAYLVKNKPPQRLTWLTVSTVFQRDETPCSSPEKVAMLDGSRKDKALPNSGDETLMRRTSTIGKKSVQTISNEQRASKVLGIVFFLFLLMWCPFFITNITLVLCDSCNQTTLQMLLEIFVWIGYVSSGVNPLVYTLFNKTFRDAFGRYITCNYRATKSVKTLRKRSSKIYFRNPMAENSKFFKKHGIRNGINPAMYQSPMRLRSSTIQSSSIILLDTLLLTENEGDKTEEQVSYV
Chain of Abl kinase (h) (P00519 whole entry): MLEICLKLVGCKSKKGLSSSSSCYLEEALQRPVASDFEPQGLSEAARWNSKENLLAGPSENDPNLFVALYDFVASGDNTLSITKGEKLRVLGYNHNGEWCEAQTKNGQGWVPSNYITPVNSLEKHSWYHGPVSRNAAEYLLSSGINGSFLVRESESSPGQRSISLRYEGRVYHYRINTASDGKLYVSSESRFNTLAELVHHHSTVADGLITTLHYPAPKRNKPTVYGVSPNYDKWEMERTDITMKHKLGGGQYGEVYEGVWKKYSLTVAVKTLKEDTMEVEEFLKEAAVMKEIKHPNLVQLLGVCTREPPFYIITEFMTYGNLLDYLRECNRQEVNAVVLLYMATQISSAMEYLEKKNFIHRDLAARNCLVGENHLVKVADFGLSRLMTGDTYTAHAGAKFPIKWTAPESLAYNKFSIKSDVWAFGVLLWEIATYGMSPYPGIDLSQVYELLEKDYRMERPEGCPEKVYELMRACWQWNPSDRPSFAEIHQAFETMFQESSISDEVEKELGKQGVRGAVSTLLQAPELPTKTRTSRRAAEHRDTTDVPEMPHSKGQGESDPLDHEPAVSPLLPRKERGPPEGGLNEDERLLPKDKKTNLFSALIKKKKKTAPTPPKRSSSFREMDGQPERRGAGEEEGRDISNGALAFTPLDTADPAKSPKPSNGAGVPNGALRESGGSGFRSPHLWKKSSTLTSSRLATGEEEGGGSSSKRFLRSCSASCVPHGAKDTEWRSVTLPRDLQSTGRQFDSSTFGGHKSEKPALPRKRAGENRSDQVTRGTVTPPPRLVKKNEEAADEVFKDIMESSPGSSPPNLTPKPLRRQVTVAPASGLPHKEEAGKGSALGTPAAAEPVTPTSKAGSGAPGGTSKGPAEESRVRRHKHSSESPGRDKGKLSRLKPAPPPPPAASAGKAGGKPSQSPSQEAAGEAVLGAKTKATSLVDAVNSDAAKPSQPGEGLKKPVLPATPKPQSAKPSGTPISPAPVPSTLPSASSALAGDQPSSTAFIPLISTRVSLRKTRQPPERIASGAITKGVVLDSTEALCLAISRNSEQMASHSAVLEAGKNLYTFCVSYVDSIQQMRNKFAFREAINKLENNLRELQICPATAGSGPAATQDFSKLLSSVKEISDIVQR
Chain of GSK3alpha (h) (P49840 whole entry): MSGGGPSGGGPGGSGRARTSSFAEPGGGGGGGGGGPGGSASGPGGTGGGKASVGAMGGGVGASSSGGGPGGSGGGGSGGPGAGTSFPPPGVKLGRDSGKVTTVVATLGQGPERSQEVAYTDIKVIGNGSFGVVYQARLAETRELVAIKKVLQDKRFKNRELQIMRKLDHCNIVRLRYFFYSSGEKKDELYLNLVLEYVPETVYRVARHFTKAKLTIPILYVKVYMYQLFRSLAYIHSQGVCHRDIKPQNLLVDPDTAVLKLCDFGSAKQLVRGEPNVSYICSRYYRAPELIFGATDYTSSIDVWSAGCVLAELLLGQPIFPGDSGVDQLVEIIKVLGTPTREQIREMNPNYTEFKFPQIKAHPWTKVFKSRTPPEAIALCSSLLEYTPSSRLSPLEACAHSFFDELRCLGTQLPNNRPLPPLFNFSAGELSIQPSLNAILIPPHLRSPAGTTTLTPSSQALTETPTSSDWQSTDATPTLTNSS

Take `O=C(O[C@H](CO)C(F)(F)F)N1CC2(CC(CC3=C4C=CC=[N+]4[B-](F)(F)n4cccc43)C2)C1` [Compound 1]: the inhibition at 10 µM at 5-HT transporter (h) is 13%; at FP (h), 11.6%; in assay [1] it was 22.6%; on D2S (h), 5.9%; on H2 (h), -10.7%; at alpha2A (h), 11.7%. Further, the inhibition at 10 µM was -3.8% at CCK1 (CCKA) (h); 28.3% on 5-HT2B (h); 0.3% on GSK3alpha (h); 4.4% on CB1 (h); -29.7% in [2]; -1.9% at Abl kinase (h). Further, in the assay with PCP, the “Inhibition PCP (antagonist radioligand)” value was 6,90%.

`O=C1CO[C@H]2CCN(C(=O)N3CC4(CC(CC5=C6C=CC(c7ccc[nH]7)=[N+]6[B-](F)(F)n6cccc65)C4)C3)C[C@H]2N1` [Compound 4a]: the inhibition at 10 µM at 5-HT transporter (h) was -9.6%; on FP (h), 16.3%; in assay [1] it was 4.3%; on D2S (h), 3.3%; on H2 (h) it was -34.8%; at alpha2A (h) it was 7.4%. Also, the inhibition at 10 µM at CCK1 (CCKA) (h) was -22.1%; on 5-HT2B (h) it was 30.3%; at GSK3alpha (h), -24.8%; at MMP-9 (h) it was 47%; on CB1 (h), -2.7%; in assay [2], 24.1%. For the same molecule, at Abl kinase (h), the inhibition at 10 µM was -53.1%. The “Inhibition PCP (antagonist radioligand)” value with PCP is recorded as 3,60%.

For the molecule `O=C(OC(C(F)(F)F)C(F)(F)F)N1CC2(CC(CC3=C4C=CC=[N+]4[B-](F)(F)n4cccc43)C2)C1` [Compound 2], the inhibition at 10 µM at 5-HT transporter (h) is -4.8%; at FP (h), 6.5%; in assay [1] it was -1.3%; at D2S (h), -4.1%; on H2 (h), -18.7%; at alpha2A (h) it was -2.2%. In addition, the inhibition at 10 µM at CCK1 (CCKA) (h) is -8.8%; on 5-HT2B (h), 4.1%; at GSK3alpha (h), -3.4%; at MMP-9 (h), 4.5%; at CB1 (h) it was -16.1%; in assay [2], 1.8%. At Abl kinase (h), the inhibition at 10 µM is -10.5%. Further, the “Inhibition PCP (antagonist radioligand)” value with PCP was -5,50%.

For the molecule `O=C(N1CC2(CC(CC3=C4C=CC=[N+]4[B-](F)(F)n4cccc43)C2)C1)N1CC2(CC(n3cnc(C4CC4)n3)C2)C1` [Compound 5], the inhibition at 10 µM at 5-HT transporter (h) is 56.5%; at FP (h), 10.4%; in assay [1] it was 4.4%; on D2S (h) it was 12.6%; on H2 (h) it was -1.9%; at alpha2A (h), -8.9%. In addition, the inhibition at 10 µM is -24.7% at CCK1 (CCKA) (h); 0.1% on 5-HT2B (h); -1.8% at GSK3alpha (h); 16.8% at MMP-9 (h); 9.9% on CB1 (h); -16.6% in assay [2]. For the same molecule, the inhibition at 10 µM on Abl kinase (h) came out at 25.6%. For the same molecule, in the assay with PCP, the “Inhibition PCP (antagonist radioligand)” value is on record as -14,20%.

`O=C(OC(C(F)(F)F)C(F)(F)F)N1CC2(CC(CC3=C4C=CC(c5ccc[nH]5)=[N+]4[B-](F)(F)n4cccc43)C2)C1` [Compound 2a]: the inhibition at 10 µM is -12.9% at 5-HT transporter (h); 4.4% on FP (h); -3% in assay [1]; -2.6% at D2S (h); -48.6% at H2 (h); -0.9% on alpha2A (h). For the same molecule, the inhibition at 10 µM on CCK1 (CCKA) (h) was 11.9%; on 5-HT2B (h), 20.8%; at GSK3alpha (h), -5.8%; at MMP-9 (h) it was 9.7%; on CB1 (h), 6.3%; in [2], 7.8%. The inhibition at 10 µM at Abl kinase (h) was -2.9%. For the same molecule, in the assay on PCP, the “Inhibition PCP (antagonist radioligand)” value is given as -18,80%.
